These results are taken from patent US20210205271A1 (The Johns Hopkins University, priority 2018, published 2021).

Series [1] is described as follows: MBZ plasma exposure in male beagle dogs after oral administration. Format: in vivo, dog. The conditions noted are these: PO […] MBZ equivalent.
The conditions of series [2]: mouse, in vivo, iv, 1.5 mg/kg. How it is done: (§1) All pharmacokinetic studies in mice were conducted according to protocols approved by the Animal Care and Use Committee at Johns Hopkins University. Male CD-1 mice between 25 and 30 g were obtained from Harlan, and maintained on a 12-h light-dark cycle with ad libitum access to food and water. […] The mice were sacrificed at specified time points post drug administration. For collection of plasma and brain tissue, animals were euthanized with CO2, and blood samples were collected in heparinized microtubes by cardiac puncture. Tissues were dissected and immediately flash frozen (−80° C.). Blood samples were spun at 2,000×g for 15 min, plasma was removed and stored at −80° C. until LC/MS analysis. Prior to extraction, frozen samples were thawed on ice. The calibration curves were developed using plasma and brain from naïve animals as a matrix. Plasma samples (50 μL), were processed using a single liquid extraction method by addition of 3004 of acetonitrile as with internal standard (losartan: 0.5 μM), followed by vortex mixing for 30 sec and then centrifugation at 10,000×g for 10 min at 4° C. For brain tissue, homogenized samples were vortex mixed and centrifuged as above. A 104 aliquot of supernatant was diluted with 35 µL of acetonitrile and mixed with 50 μL water containing 0.5 μM losartan as internal standard. Extracts were centrifuged at 10,000×g for 10 min at 4° C. Supernatants were transferred to 2504 polypropylene autosampler vials sealed with a Teflon cap. A volume of 34 was injected onto the ultra-performance liquid chromatography (UPLC) instrument for quantitative analysis by LC-MS/MS.

For series [3] the following is noted: dog, in vivo, iv, 0.3 mg/kg.
Protocol: Using a co-solvent system comprising of 1% DMSO and 10% CremophorEL formulation, however, MBZ was successfully administered via IV at a dose of 1.5 mg/kg in mice (FIG. 3A) and a dose of 0.3 mg/kg in dog (FIG. 3B).
For series [4] the following is noted: mouse, in vivo, po, 30 mg/kg. Here is the method: Brain concentrations of MBZ were also measured in tandem.
as §1

For series [5] the following is noted: rats; cited from earlier work.
For series [6] the following is noted: cited from earlier work.

Several values for one entry are separate records, joined by “and”; a condition that tells them apart may be missing. Equal values may be shown once. Read-outs that look alike come from different tables or passages of the source.

With Mebendazole [MBZ-C], in series [1], the “% F (oral bioavailability of MBZ)” value stood at 11% and the “Tmax (MBZ, plasma)” value is 2 h. In addition, in series [2], the AUC0-t is 2.7 µM·h, the highest level (Cmax) was 5.3 µM, the Tmax stood at 4.98 min and the Vd is 1.4 L/kg. Besides, in series [2], the “time of Cmax post-dose” value is 5 min. Further, in series [3], the AUC0-t is 0.9 µM·h and the distribution volume (Vd) is reported as 1.3 L/kg. In series [4], the “AUC0-t (MBZ, brain)” value came to 13.1 ± 4.2 nmol·h/g and the “AUC0-t (MBZ, plasma)” value turned out to be 12.9 µM·h.
As for `COC(=O)NC(=S)Nc1cc(C(=O)c2ccccc2)ccc1N` [4-amino-3-(3′-methoxycarbonyl-2′-thioureido)benzophonone], in series [5], the “fold improvement in plasma exposure versus equimolar oral MBZ” value is reported as 2 fold.
Turning to `COC(=O)Nc1nc2ccc(C(=O)c3ccccc3)cc2[nH]1` [MBZ, Mebendazole], the oral bioavailability in series [6] (pilot human study, one subject, intravenous and oral [3H]-mebendazole) was 17%. The bioavailability in series [6] (second human study, five subjects) was 22% and 12-35%.
